The text below walks through data of patent publication US20120178158A1, “ADULT ANIMALS GENERATED FROM INDUCED PLURIPOTENT CELLS” (The Scripps Research Institute, priority 2009, published 2012).

In assay [1] the test system is mouse embryonic fibroblasts (MEFs). Put plainly: Dox-inducible lentiviral reprogramming of fibroblasts to iPSC colonies. The format is cell-based. From the text:
We reasoned that inappropriate expression of reprogramming genes during development could inhibit embryonic and postnatal development. Therefore, we designed a drug-inducible lentiviral reprogramming strategy to achieve tight control of transgene expression in iPSCs and their derivatives (FIG. 1b)^19. The four original reprogramming factors (Oct4, Sox2, Klf4 and cMyc) were placed under control of the tetO promoter, which is activated by the reverse tetracycline transactivator (rtTA) protein in the presence of the tetracycline analog doxycycline (dox). We used an enhanced version of the rtTA transcriptional activator protein (rtTAM2.2) that induces higher gene expression levels than the rtTAM2 protein^20. To promote complete reprogramming and facilitate isolation of fully reprogrammed iPSCs we exposed MEFs to the histone deacetylase inhibitor valproic acid (VPA), which has been reported to enhance reprogramming efficiency^21 and to select against incompletely reprogrammed cells by inhibiting cell division^22 (Supplementary methods).
Generation of iPSCs. Mouse embryonic fibroblasts (MEFs) were prepared from Pcdh21/Cre-Z/EG (iMZ lines) or Nex/Cre-Z/EG (iNZ lines) E13.5 embryos. Generation of iMZ lines: After 24 hours in culture, individual wells of ˜300,000 MEFs were transduced with lentiviruses (day 1) and split 1:2 (day 2) and 1:3 (day 3) to generate 6 wells of transduced MEFs. On post-transduction day 4, dox (10 μg/ml) was added to four wells to induce expression of reprogramming genes; three of these wells were also treated with VPA (1.9 mM). The remaining two wells were treated with nothing, or VPA alone. To maintain conditions for optimal MEF growth and viability, on post-transduction day five, the three dox+VPA wells were expanded into a 15 cm^2 dish while the other three conditions were expanded to 10 cm^2 dishes. […] On day 14, additional colonies were isolated, of which 12 were expanded (lines iMZ-9-21) and characterized further. […] On post-transduction day 17, all putative iPSC lines were transferred to fresh feeders in single 96 well plates. Cell lines were expanded into two wells on post-transduction day 21. Cells were maintained in dox+VPA until post-transduction day 23, when both were removed. All cell lines appeared to maintain ESC like morphology and proliferation rates. Lines were expanded to 24 well plates on day 24. Subsequently, cell lines were banked and maintained as described in the cell culture conditions section. Generation of iNZ lines: Initial reprogramming conditions were identical to those of iMZ lines except that cells were split 1:2 on post-transduction day 3 to generate four wells (dox+VPA, dox only, VPA only and no treatment). Cells were split once after dox and VPA addition. […]

Assay [2] deals with Gtl2/Dlk1 (Gtl2 locus). Nature of the assay: Methylation / activity of the Gtl2 locus in iPS cell lines derived with or without VPA. Conditions: VPA+ (n = 15 cell lines). The format is cell-based, mouse. From the text:
In some embodiments, the induction conditions include contacting the cells with a histone deacetylase inhibitor or other compound that alters epigenetic marks. […] See, Stadfeld, et al., Nature. 465(7295):175-81 (2010); Liu et al., J Biol Chem. 285(25):19483-90 (2010). Normal ESCs express genes from one of the two parental chromosomes. Previous non-fully pluripotent IPSC lines have reduced expression from both parental Gtl loci by allowing extra epigenetic marking. These iPSC lines have methylated both Gtl2 loci and also may have distinct histone acetylation and methylation that turns off gene expression which correlates with or causes failure to generate live animals. The methods described herein produce a high frequency of cell lines that generate mice and these lines have an active and properly imprinted (i.e., hemi-methylated and histone acetylated) Gtl2 locus. When the epigenetic remodeling compound, VPA is removed from the method but no other variables are changed, the Gtl2 locus is no longer active or properly imprinted in the majority of cell lines. Therefore inclusion of VPA, or other histone deacetylase inhibitors or epigenetic remodeling compounds, regulates imprinting of the Gtl2 locus and other genomic regions that control pluripotency.

Regarding `C[C@H]1c2cccc(O)c2C(=O)C2=C(O)[C@]3(O)C(=O)C(C(N)=O)=C(O)[C@@H](N(C)C)[C@@H]3[C@@H](O)[C@@H]21` [dox, doxycycline], the “post-transduction day on which colonies were observed” value was found to be 11 in assay [1] (iMZ lines, Pcdh21/Cre-Z/EG MEFs, dox 10 μg/ml, VPA 1.9 mM from day 4) and 11 in assay [1] (iNZ lines, Nex/Cre-Z/EG MEFs). For the same compound, the “colonies observed on day 14” value in assay [1] (iNZ lines, Nex/Cre-Z/EG MEFs, post-transduction day 14) stood at 19.
In the case of `CCCC(CCC)C(=O)O` [VPA, valproic acid], the “% iPS Cell Lines with Active Gtl2 Locus: % Locus Unmethylated High (>40%)” value in assay [2] (share of lines in class High (>40%)) was 27%. For the same compound, the “% iPS Cell Lines with Active Gtl2 Locus: % Locus Unmethylated Low (1-10%)” value in assay [2] (share of lines in class Low (1-10%)) came out at 40%. For the same compound, the “% iPS Cell Lines with Active Gtl2 Locus: % Locus Unmethylated Medium (10-40%)” value in assay [2] (share of lines in class Medium (10-40%)) came to 33%. Besides, the “% iPS Cell Lines with Active Gtl2 Locus: % Locus Unmethylated Negative (not detectable)” value in assay [2] (share of lines in class Negative (not detectable)) was 0%. For the same compound, the “colony emergence in the absence of dox” value in assay [1] (iMZ MEFs, VPA alone 1.9 mM, no dox) is on record as “No colonies emerged”.
